Laboratory results reported in ChEMBL document CHEMBL5365427, “Discovery and Structural Optimization of Covalent ZAP-70 Kinase Inhibitors against Psoriasis” (J Med Chem, 2023).
Activity calls are given as the source filed them. No cut-off for these calls is given here.

Columns and labels:
[1] = molecular target: T1, Tyrosine-protein kinase SYK (Homo sapiens, UniProt P43405); assay: Inhibition of SYK (unknown origin) using ULight-TK peptide as substrate at 1 uM incubated for 120 mins in presence of ATP by Lance Ultra Kinase assay relative to control
[2] = GSH reactivity of compound at pH 7.4 PBS buffer assessed as half life incubated for 180 min by HPLC-MS analysis; assay type: physicochemical; settings: glutathione (GSH) in PBS buffer
[3] = test system: Splenocyte; assay: Immunosuppressive activity in BALB/c mouse Splenocyte assessed as inhibition of concanavalin A induced T-cell proliferation incubated for 48 hrs by [3H]-thymidine incorporation based beta scintillation counter analysis; assay type: functional
[4] = molecular target: T1, Tyrosine-protein kinase SYK; assay: Inhibition of SYK (unknown origin) using ULight-TK peptide as substrate incubated for 120 mins in presence of ATP by Lance Ultra Kinase assay
[5] = molecular target: T2, Tyrosine-protein kinase ZAP-70 (Homo sapiens, UniProt P43403); assay: Inhibition of ZAP-70 (unknown origin) using ULight-TK peptide as substrate incubated for 120 mins in presence of ATP by Lance Ultra Kinase assay
T2 sequence (P43403 whole entry): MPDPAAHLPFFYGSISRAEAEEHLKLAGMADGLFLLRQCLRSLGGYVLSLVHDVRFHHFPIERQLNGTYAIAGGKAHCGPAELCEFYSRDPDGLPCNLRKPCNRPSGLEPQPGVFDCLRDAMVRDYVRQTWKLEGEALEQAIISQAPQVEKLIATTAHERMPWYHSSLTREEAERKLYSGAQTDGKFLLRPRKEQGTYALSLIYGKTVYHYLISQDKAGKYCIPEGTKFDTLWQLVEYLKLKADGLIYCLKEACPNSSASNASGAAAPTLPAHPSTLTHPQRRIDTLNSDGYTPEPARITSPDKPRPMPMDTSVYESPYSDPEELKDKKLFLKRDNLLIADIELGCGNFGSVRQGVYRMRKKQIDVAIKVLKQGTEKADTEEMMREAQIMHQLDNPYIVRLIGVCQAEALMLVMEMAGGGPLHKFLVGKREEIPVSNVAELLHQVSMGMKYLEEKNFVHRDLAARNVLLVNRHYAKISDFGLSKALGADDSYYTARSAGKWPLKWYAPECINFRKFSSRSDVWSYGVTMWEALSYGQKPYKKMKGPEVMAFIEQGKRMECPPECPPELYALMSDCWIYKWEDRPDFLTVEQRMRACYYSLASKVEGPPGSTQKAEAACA

| SMILES | inhibition [1] [%] | half-life [2] [h] | Activity [3] | IC50 [4] [nM] | IC50 [5] [nM] |
| --- | --- | --- | --- | --- | --- |
| C=CC(=O)Nc1ccc(Cl)c(CNc2nc(Nc3cc(OC)cc(OC)c3)c(C(N)=O)c3nccn23)c1 | 6.8 | – | – | – | – |
| C=CC(=O)Nc1cccc(CNc2nc(Nc3cc(OC)cc(OC)c3)c(C(N)=O)c3nccn23)c1 | 15.4 | 4.23 | – | – | – |
| C=CC(=O)Nc1cccc(CNc2nc(Nc3cc(OC)cc(OC)c3)c(C(N)=O)c3nccn23)c1Cl | 13.2 | – | – | – | – |
| C=CC(=O)Nc1ccc2c(c1)CN(c1nc(Nc3cc(OC)cc(OC)c3)c(C(N)=O)c3nccn13)CC2 | 22.3 | – | – | – | – |
| C=CC(=O)Nc1cc(CNc2nc(Nc3ccc(N4CCN(C)CC4)c(OC)c3)c(C(N)=O)c3nccn23)ccc1Cl | 84 | – | Active | 532 | – |
| COc1cc(Nc2nc(NCc3cccc(NC(=O)CCl)c3)n3ccnc3c2C(N)=O)cc(OC)c1 | 20.7 | – | Active | > 10000 | 44.8 |
| C=CC(=O)Nc1cc(F)cc(CNc2nc(Nc3cc(OC)cc(OC)c3)c(C(N)=O)c3nccn23)c1 | 0.8 | – | – | – | – |
| C=CC(=O)Nc1cc(CNc2nc(Nc3ccc(N4CCOCC4)c(OCC)c3)c(C(N)=O)c3nccn23)ccc1Cl | 82 | – | Active | 641 | – |
| C=CC(=O)Nc1cc(CNc2nc(Nc3cc(OC)cc(OC)c3)c(C(N)=O)c3nccn23)ccc1F | 19.8 | 1.07 | – | > 10000 | – |
| C=CC(=O)Nc1cc(CNc2nc(Nc3ccc(N4CCN(C5COC5)CC4)c(OC)c3)c(C(N)=O)c3nccn23)ccc1Cl | 87.5 | – | Active | 598 | – |
| C=CC(=O)Nc1cc(CNc2nc(Nc3cc(OC)cc(OC)c3)c(C(N)=O)c3nccn23)ccc1C(F)(F)F | 0.5 | – | – | – | – |
| C=CC(=O)Nc1cc(CNc2nc(Nc3ccc(N4CCOCC4)c(OC(C)C)c3)c(C(N)=O)c3nccn23)ccc1Cl | 27.6 | – | – | – | – |
| C=CC(=O)Nc1ccc(F)c(CNc2nc(Nc3cc(OC)cc(OC)c3)c(C(N)=O)c3nccn23)c1 | 6.2 | – | – | – | – |
| C=CC(=O)Nc1cccc(CN(C)c2nc(Nc3cc(OC)cc(OC)c3)c(C(N)=O)c3nccn23)c1 | -5.9 | – | – | – | – |
| C=CC(=O)Nc1cc(CNc2nc(Nc3cc(OC)cc(N4CCOCC4)c3)c(C(N)=O)c3nccn23)ccc1Cl | 17.7 | – | – | – | – |
| C=CC(=O)Nc1cc(CNc2nc(Nc3ccc(N4CCOCC4)cc3OC)c(C(N)=O)c3nccn23)ccc1Cl | 3.2 | – | – | – | – |
| C=CC(=O)N1CCCc2c(CNc3nc(Nc4cc(OC)cc(OC)c4)c(C(N)=O)c4nccn34)cccc21 | 10.9 | – | – | – | – |
| C=CC(=O)Nc1cc(CNc2nc(Nc3ccc(N4CCOCC4)c(CO)c3)c(C(N)=O)c3nccn23)ccc1Cl | 40.2 | – | – | 4280 | – |
| C=CC(=O)Nc1cccc(C(C)Nc2nc(Nc3cc(OC)cc(OC)c3)c(C(N)=O)c3nccn23)c1 (stereo unspecified) | 10.1 | – | – | – | – |
| C=CC(=O)Nc1cc(CNc2nc(Nc3ccc(N4CCCN(C)CC4)c(OC)c3)c(C(N)=O)c3nccn23)ccc1Cl | 71.2 | – | Active | 1280 | – |
| C=CC(=O)Nc1cc(CNc2nc(Nc3cc(OC)cc(OC)c3)c(C(N)=O)c3nccn23)ccc1C | 15.1 | – | – | – | – |
| C=CC(=O)Nc1cc(CNc2nc(Nc3cc(OC)cc(OC)c3)c(C(N)=O)c3nccn23)ccc1O | 9 | – | – | – | – |
| C=CC(=O)Nc1cccc(CNc2nc(Nc3cc(OC)cc(OC)c3)c(C(N)=O)c3nccn23)c1F | 44.7 | – | – | 7000 | – |
| C=CC(=O)Nc1cc(CNc2nc(Nc3cc(OC)cc(OC)c3)c(C(N)=O)c3nccn23)ccc1Cl | 17.5 | 1.35 | – | > 10000 | – |
| C=CC(=O)Nc1cc(Cl)cc(CNc2nc(Nc3cc(OC)cc(OC)c3)c(C(N)=O)c3nccn23)c1 | 8.2 | – | – | – | – |
| C=CC(=O)Nc1cc(CNc2nc(Nc3cc(OC)cc(OC)c3)c(C(N)=O)c3nccn23)ccn1 | 7 | 0.383 | – | – | – |
| C=CC(=O)Nc1cc(CNc2nc(Nc3ccc(N4CCOCC4)c(NC(C)=O)c3)c(C(N)=O)c3nccn23)ccc1Cl | 18.8 | – | – | – | – |
| C=CC(=O)Nc1cc(CNc2nc(Nc3ccc(N4CCOCC4)cc3)c(C(N)=O)c3nccn23)ccc1Cl | 61.4 | – | – | 5530 | – |
| C=CC(=O)Nc1cc(CNc2nc(Nc3ccc(N4CCC(O)CC4)c(OC)c3)c(C(N)=O)c3nccn23)ccc1Cl | 47.1 | – | Active | 1290 | – |
